Experimental data: the supplement of paper PMC8960247
Counter-ions that a name gives are not always drawn. ± gives the standard error.

Key:
621-102 (TSC2-deficient) = assay: relative viability vs DMSO; higher = less cytotoxic; conditions: serum: 10% FBS, 72 h
621-103 (TSC2-rescued) = assay: as above; conditions: serum: 10% FBS, 72 h
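Further: immortalized renal angiomyolipoma cells stably carrying empty vector or TSC2, dosed in 384-well plates in DMEM, viability normalized to vehicle-treated wells within each plate.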

Structure (SMILES) | relative viability (621-102 (TSC2-deficient); 0.0001 µM) | relative viability (621-102 (TSC2-deficient); 0.001 µM) | relative viability (621-102 (TSC2-deficient); 0.01 µM) | relative viability (621-102 (TSC2-deficient); 0.1 µM) | relative viability (621-102 (TSC2-deficient); 1 µM) | relative viability (621-102 (TSC2-deficient); 10 µM) | relative viability (621-103 (TSC2-rescued); 0.0001 µM) | relative viability (621-103 (TSC2-rescued); 0.001 µM) | relative viability (621-103 (TSC2-rescued); 0.01 µM) | relative viability (621-103 (TSC2-rescued); 0.1 µM) | relative viability (621-103 (TSC2-rescued); 1 µM) | relative viability (621-103 (TSC2-rescued); 10 µM)
COc1cc(Nc2ncc(F)c(Nc3ccc4c(n3)NC(=O)C(C)(C)O4)n2)cc(OC)c1OC [R406 (free base)] | 114.2 ± 0.84% | 110 ± 2.3% | 105 ± 1.1% | 105 ± 1.2% | 105.4 ± 0.42% | 101 ± 2.1% | 99.45 ± 0.77% | 98.41 ± 0.3% | 101.7 ± 0.23% | 99.5 ± 1.3% | 98.1 ± 0.7% | 70.26 ± 0.23%
COc1cc(Nc2ncc(F)c(Nc3ccc4c(n3)NC(=O)C(C)(C)O4)n2)cc(OC)c1OC [R406] | 117 ± 2% | 110 ± 2.2% | 111 ± 1.2% | 109 ± 0.81% | 100.2 ± 0.76% | 117.2 ± 1.1% | 101 ± 1.9% | 100 ± 1.5% | 98.7 ± 1.4% | 99.27 ± 0.46% | 99.6 ± 1.3% | 89.7 ± 2.5%
CC(=O)SCC(Cc1ccccc1)C(=O)NCC(=O)OCc1ccccc1 (stereo unspecified) [Racecadotril] | 134 ± 1.7% | 120 ± 3.8% | 122 ± 1.8% | 107 ± 3.7% | 114 ± 5.8% | 113 ± 1.3% | 104 ± 4.4% | 95.5 ± 2% | 101 ± 4.2% | 101 ± 3.7% | 106 ± 1.2% | 99.3 ± 2.2%
FC(F)(F)c1ccc(Nc2nc3ccc(Oc4ccnc(-c5ncc(C(F)(F)F)[nH]5)c4)cc3[nH]2)cc1 [Raf265 derivative] | 113.2 ± 0.3% | 94.5 ± 1.8% | 106.8 ± 0.2% | 112 ± 4.1% | 102 ± 6.6% | 72.52 ± 0.56% | 110 ± 2.7% | 108 ± 6.7% | 94.7 ± 5% | 103 ± 5.7% | 101 ± 4.6% | 73.2 ± 7%
Cc1nnc(C(=O)NC(C)(C)c2nc(C(=O)NCc3ccc(F)cc3)c(O)c(=O)n2C)o1 [Raltegravir] | 106 ± 3.9% | 106 ± 3.1% | 108 ± 4.3% | 101.8 ± 0.33% | 110 ± 3.2% | 106 ± 3.2% | 99.5 ± 3% | 101 ± 1.5% | 100 ± 1.3% | 98.8 ± 1.3% | 101 ± 1.4% | 105 ± 2.1%
Cc1nc(=O)c2cc(CN(C)c3ccc(C(=O)N[C@@H](CCC(=O)O)C(=O)O)s3)ccc2[nH]1 [Raltitrexed (Tomudex)] | 86.7 ± 3.5% | 92.8 ± 1.6% | 107 ± 1.7% | 103.6 ± 0.8% | 92.5 ± 1.6% | 80.3 ± 1.2% | 99.1 ± 5.1% | 97.1 ± 4.5% | 115 ± 4.2% | 113 ± 1.8% | 102.7 ± 0.7% | 96.3 ± 3.2%
CCOC(=O)[C@H](CCc1ccccc1)N[C@@H](C)C(=O)N1[C@H](C(=O)O)C[C@@H]2CCC[C@@H]21 [Ramipril] | 107.5 ± 1% | 108 ± 2.2% | 102.3 ± 0.74% | 106 ± 4.6% | 108 ± 2.3% | 106.9 ± 0.7% | 104 ± 5.8% | 104 ± 2.4% | 92.3 ± 11% | 106 ± 0.85% | 102 ± 5% | 111 ± 1.6%
CNC(=C[N+](=O)[O-])NCCSCc1ccc(CN(C)C)o1 [Ranitidine HCl] | 103 ± 8.4% | 104 ± 0.46% | 101 ± 2.8% | 97.8 ± 2.7% | 105 ± 2.8% | 97.6 ± 0.51% | 107 ± 3.1% | 106 ± 3.6% | 103.5 ± 0.96% | 106 ± 1.3% | 103 ± 3% | 100.1 ± 0.51%
CO[C@H]1C[C@@H]2CC[C@@H](C)[C@@](O)(O2)C(=O)C(=O)N2CCCC[C@H]2C(=O)O[C@H]([C@H](C)C[C@@H]2CC[C@@H](O)[C@H](OC)C2)CC(=O)[C@H](C)/C=C(\C)[C@@H](O)[C@@H](OC)C(=O)[C@H](C)C[C@H](C)/C=C/C=C/C=C/1C [Rapamycin (Sirolimus)] | 37 ± 2.8% | 43.2 ± 5% | 38.8 ± 3.9% | 41.6 ± 2.9% | 44.6 ± 5.5% | 44.8 ± 2% | 80.829 ± 0.071% | 63.1 ± 2.6% | 70 ± 2.1% | 78.1 ± 1.8% | 71.36 ± 0.67% | 68.1 ± 2.8%
CC(NCCc1ccc(O)cc1)C(O)c1ccc(O)cc1 (stereo unspecified) [Ritodrine HCl] | 110 ± 1.6% | 112.1 ± 0.64% | 101 ± 2.7% | 100 ± 1.3% | 100 ± 1.4% | 102 ± 6.3% | 100 ± 5% | 98 ± 2.1% | 102 ± 2.8% | 98.2 ± 6.2% | 97.3 ± 6.2% | 86.5 ± 1.5%
CC(C)c1nc(CN(C)C(=O)N[C@H](C(=O)N[C@@H](Cc2ccccc2)C[C@H](O)[C@H](Cc2ccccc2)NC(=O)OCc2cncs2)C(C)C)cs1 [Ritonavir] | 106.1 ± 0.46% | 98.8 ± 4.8% | 105 ± 4.1% | 104 ± 1.4% | 100 ± 1.4% | 102 ± 2.6% | 99.5 ± 0.28% | 99.3 ± 1.5% | 98.8 ± 0.17% | 97.77 ± 0.48% | 97.6 ± 2.4% | 98.28 ± 0.37%
O=C(NC[C@H]1CN(c2ccc(N3CCOCC3=O)cc2)C(=O)O1)c1ccc(Cl)s1 [Rivaroxaban (Xarelto)] | 101 ± 5.5% | 104.4 ± 0.87% | 122.4 ± 0.29% | 117 ± 6.5% | 116 ± 1.6% | 120 ± 3.2% | 105 ± 2.4% | 116 ± 3.4% | 121 ± 1.5% | 117 ± 2.9% | 112 ± 1.1% | 104 ± 3.9%
CN(CCOc1ccc(CC2SC(=O)NC2=O)cc1)c1ccccn1 (stereo unspecified) [Rosiglitazone (Avandia)] | 112.8 ± 0.24% | 102 ± 8.2% | 99.4 ± 1% | 101 ± 3% | 102 ± 1.4% | 89.188 ± 0.073% | 97.1 ± 3.3% | 105 ± 2.9% | 102 ± 2.3% | 101 ± 3.8% | 105.9 ± 0.89% | 105 ± 1.4%
Cc1ccc(S(=O)(=O)OCC(=O)Nc2ccc(C(=O)O)c(O)c2)cc1 [S31-201] | 119.8 ± 0.59% | 125 ± 1.4% | 123 ± 3.5% | 121 ± 3.3% | 112 ± 1.6% | 119.2 ± 0.71% | 99.4 ± 2% | 98.17 ± 0.7% | 104 ± 2.1% | 102.7 ± 0.83% | 100 ± 1.8% | 101 ± 1.9%
COc1ccc([C@H]2CNC(=O)C2)cc1OC1CCCC1 [S-(+)-Rolipram] | 101 ± 4.1% | 102 ± 1.8% | 102 ± 3.9% | 101 ± 2.3% | 96.742 ± 0.089% | 103.39 ± 0.018% | 103 ± 5.1% | 100 ± 2% | 104 ± 3.3% | 104 ± 2.8% | 104 ± 3.2% | 106 ± 2.3%
CN1CCC(CNc2ccc3ncc(-c4cccc(OC(F)(F)F)c4)n3n2)CC1 [SGI-1776] | 93.93 ± 0.059% | 110 ± 1.1% | 98.6 ± 2.4% | 96.61 ± 0.13% | 86.6 ± 1.3% | 0.96 ± 0.17% | 94.08 ± 0.52% | 101 ± 1.6% | 101 ± 1.6% | 98.8 ± 2.8% | 82.6 ± 2% | 0.884 ± 0.13%
O=C(Nc1cccc(Cl)c1)Nc1ncc(CCNc2ncnc3ccsc23)s1 [SNS-314 Mesylate] | 107 ± 3% | 85.4 ± 1.4% | 83.06 ± 0.37% | 65.9 ± 0.75% | 79.5 ± 4.8% | 67.3 ± 1.1% | 102.7 ± 0.28% | 104 ± 1.1% | 98.4 ± 1.1% | 93.6 ± 1.6% | 89.5 ± 1.7% | 77.2 ± 2.1%
CN1[C@@H]2C[C@@H](OC(=O)[C@H](CO)c3ccccc3)C[C@H]1[C@@H]1O[C@@H]12 [Scopolamine hydrobromide] | 127 ± 2.7% | 119 ± 5.9% | 120 ± 2.6% | 112 ± 1.9% | 115.3 ± 1.1% | 108 ± 3.8% | 102 ± 4% | 99.3 ± 2% | 96.3 ± 2.5% | 99.3 ± 1.4% | 100 ± 2.1% | 102 ± 1.5%
